Measured values reported in paper PMC3833957, “Macroscopic Kinetics of Pentameric Ligand Gated Ion Channels: Comparisons between Two Prokaryotic Channels and One Eukaryotic Channel” (PLoS ONE, 2013).

Molecular target: T1, ELIC (Dickeya chrysanthemi, UniProt P0C7B7)
T1 sequence (P0C7B7 1-321): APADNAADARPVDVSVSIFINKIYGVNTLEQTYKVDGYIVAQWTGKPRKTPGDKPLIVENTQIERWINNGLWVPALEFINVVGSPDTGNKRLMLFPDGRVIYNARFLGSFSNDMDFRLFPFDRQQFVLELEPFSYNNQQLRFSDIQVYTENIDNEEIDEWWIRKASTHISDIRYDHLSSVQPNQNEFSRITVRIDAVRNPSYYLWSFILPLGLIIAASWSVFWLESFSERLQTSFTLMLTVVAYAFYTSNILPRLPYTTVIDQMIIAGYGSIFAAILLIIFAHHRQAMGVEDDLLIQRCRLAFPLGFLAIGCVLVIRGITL
Assay: two-electrode voltage clamp in Xenopus oocytes; outside-out patch clamp of HEK-293T cells
Format: cell-based

Question: `NCCS` [CA, cysteamine] was tested. Which EC50 did it give?
Answer: Its EC50 is 10 ± 0.1 mM.
